Here are results for 48 compounds from patent US11021475B2, “Amide-substituted heterocyclic compounds useful as modulators of IL-12, IL-23 and/or IFN alpha responses” (Bristol-Myers Squibb Company, priority 2012, dated 2021).

Read-outs that look alike come from different tables or passages of the source.

The subject of assay [1] is IFNα stimulated Kit225 T cells (STAT-dependent luciferase reporter). The assay can be described thus: Kit225 T cell assay, IFNα-stimulated STAT-dependent luciferase reporter. In kind it is cell-based, human. How it is done: (§1) Kit225 T cells with a stably-integrated STAT-dependent luciferase reporter were plated in RPMI (Gibco) containing 10% heat-inactivated FBS (Gibco) and 100 U/mL PenStrep (Gibco). The cells were then stimulated with either 20 ng/mL human recombinant IL-23 or 200 U/mL human recombinant IFNα (PBL InterferonSource) for 5-6 hours. Luciferase expression was measured using the STEADY-GLO® Luciferase Assay System (Promega) according to the manufacturer's instructions. Inhibition data were calculated by comparison to no inhibitor control wells for 0% inhibition and non-stimulated control wells for 100% inhibition.
A general note: A reporter such as luciferase makes a cellular process visible.

Assay [2] deals with IL-23 stimulated Kit225 T cells (STAT-dependent luciferase reporter). The assay is described as follows: Kit225 T cell assay, IL-23-stimulated STAT-dependent luciferase reporter. In kind it is cell-based, human. How it is done:
as §1

The mark [3] stands for this setting: 200 U/mL human recombinant IFNα, 5-6 hours, read-out: IFNα Kit225 Reporter (IC50).
The mark [4] stands for this setting: 20 ng/mL human recombinant IL-23, 5-6 hours, read-out: IL-23 Kit225 Reporter (IC50).
Setting [5] is: KIT225, 200 U/mL human recombinant IFNα, 5-6 hours, read-out: IFNα Kit225 Reporter (IC50).
The mark [6] stands for this setting: KIT225, 20 ng/mL human recombinant IL-23, 5-6 hours, read-out: IL-23 Kit225 Reporter (IC50).
[7] abbreviates: Homo sapiens, KIT225, read-out: IFNα Kit225 Reporter (IC50, nM).
[8] abbreviates: Homo sapiens, KIT225, read-out: IL-23 Kit225 Reporter (IC50, nM).

Take `CNC(=O)c1nnc(Nc2cc(OC)ccn2)cc1Nc1cccc(-c2ncn(C)n2)c1OC` [Example 133]: the half-maximal inhibitory concentration (IC50) in assay [1] (setting [3]) is 3.81 nM; in assay [2] (setting [4]), 8.03 nM.
For `CNC(=O)c1nnc(Nc2cc(COC)ccn2)cc1Nc1cccc(-c2ncn(C)n2)c1OC` [Example 135] the same measures were 1.4 nM and 3.83 nM.
As to `CNC(=O)c1nnc(NC(=O)C2CC2)cc1Nc1cccc(-c2cnn(C)n2)c1OC` [Example 136], the half-inhibitory concentration (IC50) was determined as 6.04 nM in assay [1] (setting [3]) and 20 nM in assay [2] (setting [4]).
The corresponding values for `CNC(=O)c1nnc(Nc2cc(C)nc(C)n2)cc1Nc1cccc(-c2cnn(C)n2)c1OC` [Example 137] are 6.92 nM and 10 nM.
Take `CNC(=O)c1nnc(NC(=O)C2CC2)cc1Nc1cccc(-c2cn(C)nn2)c1OC` [Example 138]: the half-inhibitory concentration (IC50) in assay [1] (setting [3]) and in assay [2] (setting [4]) was 30 nM each time.
On to `C#Cc1cccc(Nc2cc(NC(=O)C3CC3)nnc2C(=O)NC)c1OC` [Example 139], for which the IC50 in assay [1] (setting [3]) worked out at 150 nM; in assay [2] (setting [4]), 210 nM.
For the compound `CNC(=O)c1nnc(NC(=O)C2CC2)cc1Nc1cccc(-c2n[nH]c(C)n2)c1OC` [Example 141], the IC50 amounted to 20 nM in assay [1] (setting [3]) and 40 nM in assay [2] (setting [4]).
For `CNC(=O)c1nnc(NC(=O)C2CC2)cc1Nc1cccc(-c2nnnn2C)c1OC` [Example 143], the results for the half-maximal inhibitory concentration (IC50) in assay [1] (setting [3]) and in assay [2] (setting [4]) were 140 nM and 40 nM, respectively.
As to `CNC(=O)c1nnc(Nc2cc(C)nc(C)n2)cc1Nc1cccc(-c2nnn(C)n2)c1OC` [Example 144], the values for the concentration for half-maximal inhibition (IC50) in assay [1] (setting [3]) and in assay [2] (setting [4]) were 3.15 nM and 10 nM, respectively.
With `CNC(=O)c1nnc(Nc2ccccn2)cc1Nc1cccc(-c2nnnn2C)c1OC` [Example 145], the half-maximal inhibitory concentration (IC50) was determined as 8.44 nM in assay [1] (setting [3]) and 10 nM in assay [2] (setting [4]).
For `CNC(=O)c1nnc(Nc2cc(C)n(C)n2)cc1Nc1cccc(-c2n[nH]c(C)n2)c1OC` [Example 148] the same measures were 10 nM and 20 nM.
The corresponding values for `CNC(=O)c1nnc(NC(=O)C2CC2)cc1Nc1cccc(-c2nnc(C)o2)c1OC` [Example 149] are 50 nM and 170 nM.
Take `CNC(=O)c1nnc(Nc2cc(C)c(F)cn2)cc1Nc1cccc(-c2nnc(C)o2)c1OC` [Example 150]: the IC50 was determined as 10 nM in assay [1] (setting [3]) and 20 nM in assay [2] (setting [4]).
As for `CNC(=O)c1nnc(Nc2cc(C)n(C)n2)cc1Nc1cccc(-c2nnc(C)o2)c1OC` [Example 152], the figures for the IC50 in assay [1] (setting [3]) and in assay [2] (setting [4]) were 30 nM and 130 nM, respectively.
The corresponding values for `CNC(=O)c1nnc(Nc2cc(C)nc(C)n2)cc1Nc1cccc(-c2nnc(C)o2)c1OC` [Example 153] are 30 nM and 150 nM.
For the compound `CNC(=O)c1nnc(Nc2cc(C(C)O)ccn2)cc1Nc1cccc(-c2cscn2)c1OC` (stereo not drawn) [Example 157], the IC50 in assay [1] (setting [3]) amounted to 150 nM; in assay [2] (setting [4]), 230 nM.
With `CNC(=O)c1nnc(Nc2ccnc(C)n2)cc1Nc1cccc(-c2ncccn2)c1OC` [Example 158], the figures for the IC50 in assay [1] (setting [3]) and in assay [2] (setting [4]) were 20 nM and 10 nM, respectively.
On to `CNC(=O)c1nnc(NC(=O)C2CC2)cc1Nc1cccc(-c2cn(C)cn2)c1OC` [Example 159], for which the IC50 in assay [1] (setting [3]) is 80 nM; in assay [2] (setting [4]), 110 nM.
Turning to `CNC(=O)c1nnc(Nc2cc(C)n(C)n2)cc1Nc1cccc(-c2cnc(C)s2)c1OC` [Example 161], the 50% inhibitory concentration (IC50) in assay [1] (setting [3]) and in assay [2] (setting [4]) was 210 nM each time.
Consider `[2H]C([2H])([2H])NC(=O)c1nnc(NC(=O)C2CC2)cc1Nc1cccc(-c2nc(C)no2)c1OC` [Example 162, 6-(cyclopropanecarboxamido)-4-((2-methoxy-3-(3-methyl-1,2,4-oxadiazol-5-yl)phenyl)amino)-N-trideuteromethylpyridazine-3-carboxamide], for which the values for the half-maximal inhibitory concentration (IC50) in assay [1] (setting [5]) and in assay [2] (setting [6]) were 60 nM and 120 nM, respectively.
In the case of `[2H]C([2H])([2H])NC(=O)c1nnc(Nc2ccccn2)cc1Nc1cccc(-c2nc(C)no2)c1OC` [Example 163, 4-((2-methoxy-3-(3-methyl-1,2,4-oxadiazol-5-yl)phenyl)amino)-N-trideutero-methyl-6-(pyridin-2-ylamino)pyridazine-3-carboxamide], the IC50 turned out to be 30 nM in assay [1] (setting [5]) and 40 nM in assay [2] (setting [6]).
The corresponding values for `[2H]C([2H])([2H])NC(=O)c1nnc(Nc2ccccn2)cc1Nc1cccc(C(=O)NCCOC)c1OC` [Example 164] are 170 nM and 300 nM.
As for `CNC(=O)c1nnc(Nc2ccccn2)cc1Nc1cccc(C(=O)NC2CC2)c1OC` [Example 165], the figures for the half-maximal inhibitory concentration (IC50) in assay [1] (setting [3]) and in assay [2] (setting [4]) were 230 nM and 340 nM, respectively.
Consider `CNC(=O)c1nnc(Nc2ccccn2)cc1Nc1cccc(C(=O)NCC(C)(C)O)c1OC` [Example 166], for which the IC50 in assay [1] (setting [3]) is 210 nM; in assay [2] (setting [4]), 270 nM.
Turning to `CNC(=O)c1nnc(Nc2ccccn2)cc1Nc1cccc(C(=O)NCCC(C)(C)O)c1OC` [Example 168], the IC50 is 80 nM in assay [1] (setting [3]) and 100 nM in assay [2] (setting [4]).
For `CNC(=O)c1cccc(Nc2cc(Nc3ccccn3)nnc2C(=O)NC)c1OC` [Example 169] the same measures were 30 nM and 40 nM.
`CNC(=O)c1nnc(Nc2ccccn2)cc1Nc1cccc(C(=O)NCCCO)c1OC` [Example 170]: the 50% inhibitory concentration (IC50) in assay [1] (setting [3]) worked out at 390 nM; in assay [2] (setting [4]) it was 230 nM.
The corresponding values for `CNC(=O)c1nnc(Nc2ccccn2)cc1Nc1cccc(C(=O)NCC(F)(F)F)c1OC` [Example 171] are 130 nM and 50 nM.
Take `[2H]C([2H])([2H])NC(=O)c1nnc(Nc2ccccn2)cc1Nc1cccc(-c2nnc[nH]2)c1OC` [Example 172]: the concentration for half-maximal inhibition (IC50) in assay [1] (setting [5]) came to 6.19 nM; in assay [2] (setting [6]), 5.45 nM.
As for `[2H]C([2H])([2H])NC(=O)c1nnc(NC(=O)C2CC2)cc1Nc1cccc(-c2nc[nH]n2)c1OC` [Example 173], the IC50 came out at 20 nM in assay [1] (setting [7]) and 120 nM in assay [2] (setting [8]).
For `[2H]C([2H])([2H])NC(=O)c1nnc(NC(=O)C2CC2)cc1Nc1cccc(-c2ncn(CC)n2)c1OC` [Example 174], the concentration for half-maximal inhibition (IC50) was determined as 6.97 nM in assay [1] (setting [7]) and 20 nM in assay [2] (setting [8]).
As for `CNC(=O)c1nnc(NC(=O)C2CC2)cc1Nc1cccc(-c2ncn(CCF)n2)c1OC` [Example 175], the half-maximal inhibitory concentration (IC50) in assay [1] (setting [3]) stood at 10 nM; in assay [2] (setting [4]) it was 20 nM.
On to `CCn1cnc(-c2cccc(Nc3cc(Nc4ccccn4)nnc3C(=O)NC)c2OC)n1` [Example 177], for which the IC50 in assay [1] (setting [3]) was 1.63 nM; in assay [2] (setting [4]), 1.52 nM.
For `CNC(=O)c1nnc(Nc2ccccn2)cc1Nc1cccc(-c2ncnn2C)c1OC` [Example 178], the figures for the IC50 in assay [1] (setting [3]) and in assay [2] (setting [4]) were 10 nM and 30 nM, respectively.
As to `CNC(=O)c1nnc(NC(=O)C2CC2)cc1Nc1cccc(-c2ncnn2C)c1OC` [Example 179], the IC50 in assay [1] (setting [3]) came out at 140 nM; in assay [2] (setting [4]), 450 nM.
As for `CNC(=O)c1nnc(Nc2cc(C)c(F)cn2)cc1Nc1cccc(-c2ncnn2C)c1OC` [Example 180], the concentration for half-maximal inhibition (IC50) in assay [1] (setting [3]) stood at 20 nM; in assay [2] (setting [4]) it was 60 nM.
As to `[2H]C([2H])([2H])NC(=O)c1nnc(NC(=O)C2CC2)cc1Nc1cccc(-c2nc(C)n(C)n2)c1OC` [Example 181], the IC50 in assay [1] (setting [5]) amounted to 20 nM; in assay [2] (setting [6]), 40 nM.
In the case of `[2H]C([2H])([2H])NC(=O)c1nnc(NC(=O)C2CC2)cc1Nc1cccc(-c2nc(C)nn2C)c1OC` [Example 182], the IC50 was 80 nM in assay [1] (setting [5]) and 190 nM in assay [2] (setting [6]).
For the compound `CNC(=O)c1nnc(Nc2cc(C)nc(C)n2)cc1Nc1cccc(-c2nc(C)nn2C)c1OC` [Example 184], the IC50 in assay [1] (setting [3]) stood at 7.2 nM; in assay [2] (setting [4]), 6.41 nM.
Consider `[2H]C([2H])([2H])NC(=O)c1nnc(NC(=O)C2CC2)cc1Nc1cccc(-c2cn[nH]c2)c1OC` [Example 185], for which the IC50 was 120 nM in assay [1] (setting [5]) and 280 nM in assay [2] (setting [6]).
With `CNC(=O)c1nnc(NC(=O)C2CC2)cc1Nc1cccc(-c2cnn(CC(C)(C)O)c2)c1OC` [Example 189], the figures for the IC50 in assay [1] (setting [3]) and in assay [2] (setting [4]) were 30 nM and 150 nM, respectively.
The corresponding values for `CNC(=O)c1nnc(NC(=O)C2CC2)cc1Nc1cccc(-c2cn(C(C)C)nn2)c1OC` [Example 190] are 20 nM and 20 nM.
As for `CNC(=O)c1nnc(Nc2cc(C)nc(C)n2)cc1Nc1cccc(-c2c[nH]nn2)c1OC` [Example 191], the half-maximal inhibitory concentration (IC50) stood at 8.63 nM in assay [1] (setting [3]) and 10 nM in assay [2] (setting [4]).
For the compound `[2H]C([2H])([2H])NC(=O)c1nnc(NC(=O)C2CC2)cc1Nc1cccc(-c2c[nH]nn2)c1OC` [Example 192], the IC50 amounted to 30 nM in assay [1] (setting [5]) and 40 nM in assay [2] (setting [6]).
Consider `CNC(=O)c1nnc(Nc2cc(C)n(C)n2)cc1Nc1cccc(-c2c[nH]nn2)c1OC` [Example 193], for which the IC50 in assay [1] (setting [3]) is 40 nM; in assay [2] (setting [4]), 30 nM.
As for `[2H]C([2H])([2H])NC(=O)c1nnc(NC(=O)C2CC2)cc1Nc1cccc(-c2cc[nH]n2)c1OC` [Example 195], the 50% inhibitory concentration (IC50) in assay [1] (setting [5]) stood at 20 nM; in assay [2] (setting [6]), 10 nM.
As for `[2H]C([2H])([2H])NC(=O)c1nnc(NC(=O)C2CC2)cc1Nc1cccc(-c2ccn(CC(C)(C)O)n2)c1OC` [Example 196], the results for the IC50 in assay [1] (setting [5]) and in assay [2] (setting [6]) were 160 nM and 70 nM, respectively.
As to `CNC(=O)c1nnc(Nc2cc(C)c(F)cn2)cc1Nc1cccc(-c2ccnn2C)c1OC` [Example 197], the IC50 in assay [1] (setting [3]) stood at 260 nM; in assay [2] (setting [4]), 290 nM.

In general, IC50 refers to the midpoint of a concentration-inhibition curve.
